In patent publication US9504659B2 (priority 2006, dated 2016):

Experiment: ER804057 content of the emulsion by extraction and HPLC-UV after storage
Assay type: physicochemical
Conditions: emulsion PIT-ER804057 at 5%; for ER804057 content in the emulsion: theoretical concentration 40 μg/ml
Procedure: The stability of this thermoreversible emulsion was evaluated after storage for 6 months at a temperature of +4° C. by verifying the ER804057 content in the emulsion and by checking the size distribution of oil droplets in the emulsion. To assay ER804057, a selective extraction of ER804057 from the emulsion was carried out, followed by analysis by high performance liquid chromatography (HPLC) coupled to UV detector equipped with […]. The ER804057 content of the emulsion to be verified was determined using a standard range containing between 5 and 25 μg/ml of ER804057. In order to compensate for the variations in extraction yields, a constant amount of an internal standard, the chemical structure of which is very similar to that of ER804057, was introduced into each sample to be assayed (including into the samples of the standard range). This internal standard was the chemical molecule called ER803022.
The sample of PIT-ER804057 at 5% to be assayed was prepared by taking an aliquot of the emulsion PIT-ER804057 at 5%, to which 10 μg of internal standard was added, and which was diluted in water for injectable preparation.
The extraction of ER804057 from the samples of the standard range or from the samples of PIT-ER804057 at 5% was carried out in the following way: The sample was solubilized with CM2:1. The two-phase system obtained was composed of a chloroform phase containing predominantly ER804057 and an aqueous phase containing the other compounds of the emulsion. The chloroform phase was recovered and evaporated under hot conditions under a stream of nitrogen. The dry extract obtained was taken up and again solubilized in the CM2:1 mixture. […] The dry extract derived from each sample was conserved at −20° C. before being analyzed by HPLC.
The dry extract of each sample was taken up with 50 μl of CM4:1, and then diluted to ½ in methanol, then to 1/10th in a mixture of 30% acetonitrile-water for injectable preparation, 20 μl of the dilution were injected into a liquid chromatography apparatus (HPLC Merck Hitachi, serie 7000) comprising a Waters XTerra™ RP8 column pre-equilibrated in a mobile phase consisting of a mixture of 80% of phase A (water for injectable preparation/ethanol 50/50 containing 2% H3PO4) and 20% of phase B (ethanol containing 2% H3PO4), ER804057 and the internal standard were eluted using a gradient of ethanol containing 2% H3PO4. At the outlet of the HPLC, the eluate meets the UV detector and the molecules are detected at the wavelength of 215 nm. […] Once the curve was established, the amount of ER804057 present in the emulsion PIT-ER804057 at 5% was then determined by measuring the ratio of the surface areas of the ER804057/internal standard peaks.

In the case of `CCCCCCCCCCCC(=O)CC(=O)N[C@H](COCC[C@@H](CCCCCCC)OC(=O)CCCCCCCCCCC)COP(=O)(O)OCCNC(=O)NCCOP(=O)(O)OC[C@@H](COCC[C@@H](CCCCCCC)OC(=O)CCCCCCCCCCC)NC(=O)CC(=O)CCCCCCCCCCC` [ER804057, dodecanoic acid (1R,6R,22R,27R)-1,27-diheptyl-9,19-dihydroxy-9,19-dioxido-14-oxo-6,22-bis[(1,3-dioxotetradecyl)amino]-4,8,10,18,20,24-hexaoxa-13,15-diaza-9,19-diphosphaheptacosane-1,27-diyl ester], the “ER804057 content in the emulsion” value (1 month at +4° C.) is reported as 38 µg/mL, the “ER804057 content in the emulsion” value (3 months at +4° C.) is reported as 37 µg/mL and the “change of ER804057 concentration in the emulsion on storage” value (6 months at +4° C.) is reported as “has not substantially varied”. The “ER804057 content in the emulsion” value (6 months at +4° C.) was 42 µg/mL.
